The record followed here is ChEMBL document CHEMBL5291721, “A preclinical secondary pharmacology resource illuminates target-adverse drug reaction associations of marketed drugs” (Nat Commun, 2023).

Molecules are shown by their SMILES.

The target in assay [1] is Synaptic vesicular amine transporter (Rattus norvegicus, UniProt Q01827). It counts as functional.
Assay [2] concerns the target T1, Muscarinic acetylcholine receptor M1 (Homo sapiens, UniProt P11229).
T1 sequence (P11229 whole entry): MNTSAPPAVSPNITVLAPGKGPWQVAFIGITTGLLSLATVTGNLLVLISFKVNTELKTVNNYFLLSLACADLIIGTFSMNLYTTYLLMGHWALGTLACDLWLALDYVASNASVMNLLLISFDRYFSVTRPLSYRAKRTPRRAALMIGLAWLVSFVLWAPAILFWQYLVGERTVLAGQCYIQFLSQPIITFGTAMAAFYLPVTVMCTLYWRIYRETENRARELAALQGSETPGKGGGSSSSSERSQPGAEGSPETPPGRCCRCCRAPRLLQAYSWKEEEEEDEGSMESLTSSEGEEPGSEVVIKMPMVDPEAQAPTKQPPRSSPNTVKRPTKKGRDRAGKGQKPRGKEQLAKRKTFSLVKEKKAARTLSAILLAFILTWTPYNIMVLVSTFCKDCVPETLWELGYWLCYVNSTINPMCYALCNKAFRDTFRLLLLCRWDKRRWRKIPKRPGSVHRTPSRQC

The target in assay [3] is T2, 5-hydroxytryptamine receptor 1A (Homo sapiens, UniProt P08908).
T2 sequence (P08908 whole entry): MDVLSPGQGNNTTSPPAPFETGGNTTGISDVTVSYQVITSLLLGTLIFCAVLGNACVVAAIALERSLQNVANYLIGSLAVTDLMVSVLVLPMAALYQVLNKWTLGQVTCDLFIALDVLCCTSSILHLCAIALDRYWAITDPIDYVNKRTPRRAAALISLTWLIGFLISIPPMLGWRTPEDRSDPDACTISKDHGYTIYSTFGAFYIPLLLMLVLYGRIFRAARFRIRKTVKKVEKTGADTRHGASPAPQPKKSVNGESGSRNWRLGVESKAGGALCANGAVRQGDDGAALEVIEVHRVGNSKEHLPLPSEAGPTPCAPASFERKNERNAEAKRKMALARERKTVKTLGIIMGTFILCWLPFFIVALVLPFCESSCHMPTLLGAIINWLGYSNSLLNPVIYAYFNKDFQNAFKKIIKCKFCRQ

The target of assay [4] is 5-hydroxytryptamine receptor 2B (Homo sapiens, UniProt P41595).
5-hydroxytryptamine receptor 2B, sequence (P41595 whole entry): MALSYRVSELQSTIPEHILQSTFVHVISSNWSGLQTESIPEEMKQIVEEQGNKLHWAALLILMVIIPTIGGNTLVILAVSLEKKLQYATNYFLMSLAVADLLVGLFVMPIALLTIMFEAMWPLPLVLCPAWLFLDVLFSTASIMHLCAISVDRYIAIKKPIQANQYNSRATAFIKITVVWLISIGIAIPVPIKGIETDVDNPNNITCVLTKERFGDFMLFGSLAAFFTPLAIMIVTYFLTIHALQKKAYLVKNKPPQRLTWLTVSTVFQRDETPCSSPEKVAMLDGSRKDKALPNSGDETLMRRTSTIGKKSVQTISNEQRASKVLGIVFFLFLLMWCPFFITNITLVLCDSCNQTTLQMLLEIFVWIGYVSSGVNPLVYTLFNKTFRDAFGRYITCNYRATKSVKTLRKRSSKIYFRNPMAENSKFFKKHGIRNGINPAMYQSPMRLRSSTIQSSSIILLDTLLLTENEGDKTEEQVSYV
Assay [5] addresses T3, Alpha-2A adrenergic receptor (Homo sapiens, UniProt P08913).
T3 sequence (P08913 whole entry): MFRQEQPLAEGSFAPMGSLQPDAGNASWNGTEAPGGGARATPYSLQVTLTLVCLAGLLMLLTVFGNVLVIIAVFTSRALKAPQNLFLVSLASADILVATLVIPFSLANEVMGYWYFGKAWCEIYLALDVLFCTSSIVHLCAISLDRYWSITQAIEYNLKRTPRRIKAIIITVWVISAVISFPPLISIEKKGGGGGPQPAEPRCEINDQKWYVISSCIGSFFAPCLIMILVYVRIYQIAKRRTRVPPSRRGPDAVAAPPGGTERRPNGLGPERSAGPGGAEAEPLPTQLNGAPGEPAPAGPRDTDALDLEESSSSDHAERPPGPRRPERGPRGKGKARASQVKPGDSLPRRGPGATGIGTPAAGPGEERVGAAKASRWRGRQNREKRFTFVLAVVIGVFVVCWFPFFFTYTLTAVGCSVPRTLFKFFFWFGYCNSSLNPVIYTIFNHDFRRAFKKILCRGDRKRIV

Another assay concerns the target Histamine H2 receptor (Homo sapiens, UniProt P25021).
In a further assay the target is D(1A) dopamine receptor (Homo sapiens, UniProt P21728). It counts as functional, cell-based.
D(1A) dopamine receptor, sequence (P21728 whole entry): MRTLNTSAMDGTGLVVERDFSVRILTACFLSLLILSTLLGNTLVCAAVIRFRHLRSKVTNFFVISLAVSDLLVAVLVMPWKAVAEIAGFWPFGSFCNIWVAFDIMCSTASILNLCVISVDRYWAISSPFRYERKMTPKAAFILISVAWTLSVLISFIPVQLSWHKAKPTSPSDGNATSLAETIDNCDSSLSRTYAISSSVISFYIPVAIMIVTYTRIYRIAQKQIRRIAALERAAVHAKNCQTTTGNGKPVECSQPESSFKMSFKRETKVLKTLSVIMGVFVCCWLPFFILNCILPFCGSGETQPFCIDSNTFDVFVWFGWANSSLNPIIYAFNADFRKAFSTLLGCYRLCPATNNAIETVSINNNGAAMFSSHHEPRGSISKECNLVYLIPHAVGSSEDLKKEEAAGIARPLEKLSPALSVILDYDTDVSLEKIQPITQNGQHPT
In the next assay the target is T4, Thromboxane A2 receptor (Homo sapiens, UniProt P21731).
T4 sequence (P21731 whole entry): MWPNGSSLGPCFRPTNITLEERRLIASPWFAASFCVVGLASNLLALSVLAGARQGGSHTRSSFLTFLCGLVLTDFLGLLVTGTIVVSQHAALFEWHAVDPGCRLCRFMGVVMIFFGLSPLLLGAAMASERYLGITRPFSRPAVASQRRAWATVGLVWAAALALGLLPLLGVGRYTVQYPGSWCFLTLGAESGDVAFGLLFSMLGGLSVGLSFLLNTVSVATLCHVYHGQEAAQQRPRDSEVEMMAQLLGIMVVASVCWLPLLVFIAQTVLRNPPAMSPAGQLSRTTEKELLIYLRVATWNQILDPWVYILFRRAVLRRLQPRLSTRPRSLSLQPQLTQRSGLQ
It counts as functional.

A further assay has as its target T5, Androgen receptor (Rattus norvegicus, UniProt P15207).
T5 sequence (P15207 whole entry): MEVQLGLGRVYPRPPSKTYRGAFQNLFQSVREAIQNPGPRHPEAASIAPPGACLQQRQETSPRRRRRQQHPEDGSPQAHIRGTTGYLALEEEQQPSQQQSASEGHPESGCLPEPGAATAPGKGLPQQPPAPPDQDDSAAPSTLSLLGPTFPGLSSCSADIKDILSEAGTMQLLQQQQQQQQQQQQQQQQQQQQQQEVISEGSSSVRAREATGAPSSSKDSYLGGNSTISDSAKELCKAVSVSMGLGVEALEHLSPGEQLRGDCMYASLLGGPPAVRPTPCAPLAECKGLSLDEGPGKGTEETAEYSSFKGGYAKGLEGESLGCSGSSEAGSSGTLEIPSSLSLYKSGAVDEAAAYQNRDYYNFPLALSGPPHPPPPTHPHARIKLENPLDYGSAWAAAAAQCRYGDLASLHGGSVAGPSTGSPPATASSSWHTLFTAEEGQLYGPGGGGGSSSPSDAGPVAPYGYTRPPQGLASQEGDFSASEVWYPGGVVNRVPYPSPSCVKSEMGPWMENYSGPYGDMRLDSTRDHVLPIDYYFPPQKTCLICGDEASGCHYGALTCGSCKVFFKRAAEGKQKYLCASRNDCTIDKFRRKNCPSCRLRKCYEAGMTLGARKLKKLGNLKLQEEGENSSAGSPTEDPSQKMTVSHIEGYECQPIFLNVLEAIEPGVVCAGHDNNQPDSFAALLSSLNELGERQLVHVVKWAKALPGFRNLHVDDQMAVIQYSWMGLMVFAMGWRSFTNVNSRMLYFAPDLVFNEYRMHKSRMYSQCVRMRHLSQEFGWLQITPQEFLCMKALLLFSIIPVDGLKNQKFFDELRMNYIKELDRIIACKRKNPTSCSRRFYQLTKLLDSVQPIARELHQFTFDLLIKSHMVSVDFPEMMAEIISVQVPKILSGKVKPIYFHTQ
It counts as functional.
Further: assay procedure not described here.

Histamine H2 receptor, sequence (P25021 whole entry): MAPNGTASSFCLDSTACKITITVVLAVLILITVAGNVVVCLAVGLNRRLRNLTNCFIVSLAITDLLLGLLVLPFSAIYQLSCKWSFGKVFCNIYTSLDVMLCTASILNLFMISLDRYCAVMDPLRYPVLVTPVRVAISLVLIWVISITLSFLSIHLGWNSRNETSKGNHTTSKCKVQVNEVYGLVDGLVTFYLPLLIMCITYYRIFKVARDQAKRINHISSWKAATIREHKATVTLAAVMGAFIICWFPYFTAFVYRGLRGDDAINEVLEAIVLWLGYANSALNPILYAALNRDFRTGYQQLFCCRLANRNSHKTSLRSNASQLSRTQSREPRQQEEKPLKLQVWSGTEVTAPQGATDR
Synaptic vesicular amine transporter, sequence (Q01827 whole entry): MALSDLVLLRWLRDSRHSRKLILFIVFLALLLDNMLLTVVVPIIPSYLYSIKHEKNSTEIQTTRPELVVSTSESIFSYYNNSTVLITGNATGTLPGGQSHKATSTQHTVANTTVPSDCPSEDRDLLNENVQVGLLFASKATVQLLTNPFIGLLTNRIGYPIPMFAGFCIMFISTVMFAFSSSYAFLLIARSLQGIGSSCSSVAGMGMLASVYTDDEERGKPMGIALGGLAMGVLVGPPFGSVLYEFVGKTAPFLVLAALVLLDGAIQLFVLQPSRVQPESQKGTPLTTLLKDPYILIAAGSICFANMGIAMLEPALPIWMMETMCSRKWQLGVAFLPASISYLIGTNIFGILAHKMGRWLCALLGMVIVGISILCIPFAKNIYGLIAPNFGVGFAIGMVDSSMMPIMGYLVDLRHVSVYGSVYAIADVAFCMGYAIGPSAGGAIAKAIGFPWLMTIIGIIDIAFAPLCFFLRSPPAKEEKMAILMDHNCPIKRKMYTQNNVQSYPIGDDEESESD

Usually AC50 stands for the concentration giving half of the maximal activity seen. High values mean activity only at high concentration, low ones activity at low concentration. In turn, `OC[C@H]1NC[C@H](O)[C@@H](O)[C@H]1O` showed a concentration at half-maximal activity (AC50) in assay [1] of over 30 µM.
`O=C(O)[C@@H](S)[C@@H](S)C(=O)O` returned an AC50 in assay [2] of over 30 µM.
In the case of `CCOC(=O)[C@H](CCc1ccccc1)N[C@@H](C)C(=O)N1Cc2ccccc2C[C@H]1C(=O)O`, the concentration at half-maximal activity (AC50) (in [3]; in assay [4]; in assay [5]; at Histamine H2 receptor) was over 10 µM in each case.
The compound `CCC[C@@]1(CCc2ccccc2)CC(O)=C([C@H](CC)c2cccc(NS(=O)(=O)c3ccc(C(F)(F)F)cn3)c2)C(=O)O1` showed an AC50 on D(1A) dopamine receptor of 14 µM.
As to `CC#CC(=O)N1CCC[C@H]1c1nc(-c2ccc(C(=O)Nc3ccccn3)cc2)c2c(N)nccn12` [ACALABRUTINIB], the concentration at half-maximal activity (AC50) in assay [2] is over 30 µM.
As for `O=C(O)COC(=O)Cc1ccccc1Nc1c(Cl)cccc1Cl` [ACECLOFENAC], the AC50 in assay [3] was over 10 µM.
In turn, `CN(C)CCc1c[nH]c2ccc(CS(=O)(=O)N3CCCC3)cc12` [ALMOTRIPTAN] showed a half-maximal activity concentration (AC50) in assay [4] of 0.51 µM.
`CN(C)CCC=C1c2ccccc2CCc2ccccc21` [AMITRIPTYLINE]: the AC50 in [3] is 3.77 µM; in assay [5] it was 2.92 µM; on Thromboxane A2 receptor it was over 30 µM.
For `CN1CC2c3ccccc3Oc3ccc(Cl)cc3C2C1` (centres undefined) [ASENAPINE], the concentration at half-maximal activity (AC50) at D(1A) dopamine receptor turned out to be 0.244 µM; in assay [1], 1.05 µM.
In the case of `CC(=O)Oc1ccccc1C(=O)O` [ASPIRIN], the AC50 in [3] was over 10 µM; in assay [4] it was over 10 µM; in assay [5], over 10 µM; at Thromboxane A2 receptor, over 30 µM; on Histamine H2 receptor it was over 10 µM.
As to `C[C@H](CS)C(=O)N1CCC[C@H]1C(=O)O` [CAPTOPRIL], the AC50 in [3] and in assay [5] was over 10 µM each time.
As to `CCN(CC)CCn1c(=O)c(Cc2ccc(OC)cc2)nc2ccccc21` [CAROVERINE], the AC50 at Androgen receptor is over 30 µM.
For `O=C(Cc1cccs1)N[C@@H]1C(=O)N2C(C(=O)[O-])=C(C[n+]3ccccc3)CS[C@H]12` [CEPHALORIDINE], in assay [2], the AC50 was over 30 µM.
As for `C[C@H](CCC(=O)O)[C@H]1CC[C@H]2[C@@H]3[C@H](O)C[C@@H]4C[C@H](O)CC[C@]4(C)[C@H]3CC[C@]12C` [CHENODIOL], the AC50 at D(1A) dopamine receptor was over 30 µM.
`CN(C)CCCC1(c2ccc(F)cc2)OCc2cc(C#N)ccc21` (centres undefined) [CITALOPRAM]: the AC50 was over 10 µM in assay [3], 0.273 µM in assay [4] and over 10 µM in assay [5].
On to `C[C@H](Nc1ncnc2[nH]cnc12)c1cc2cccc(Cl)c2c(=O)n1-c1ccccc1` [DUVELISIB], for which the concentration at half-maximal activity (AC50) (at D(1A) dopamine receptor; at Androgen receptor; in assay [2]) was over 30 µM throughout.
`O=c1[nH]c2ccccc2n1CCN1CCN(c2cccc(C(F)(F)F)c2)CC1` [FLIBANSERIN]: in [1], the AC50 was 0.072 µM.
Regarding `C[C@]12CCC(=O)C=C1CC[C@H]1[C@@H]3CC[C@](O)(C(=O)CO)[C@@]3(C)C[C@H](O)[C@@]12F` [FLUDROCORTISONE], the AC50 (in [3]; in assay [4]; in [5]; on Histamine H2 receptor) was over 10 µM throughout.
As to `OCCOCCN1CCN(C(c2ccccc2)c2ccc(Cl)cc2)CC1` (centres undefined) [HYDROXYZINE], the concentration at half-maximal activity (AC50) in assay [3] was over 10 µM; in assay [4], 0.157 µM; in [5], 12.8 µM; at Histamine H2 receptor, 0.188 µM.
Consider `C[C@@H](O)[C@H]1C(=O)N2C(C(=O)O)=C(SCCN=CN)C[C@H]12` [IMIPENEM ANHYDROUS], for which the AC50 at D(1A) dopamine receptor and at Thromboxane A2 receptor was over 300 µM each time.
On to `N#Cc1ccnc(N2C(=O)CC[C@H]2C(=O)N(c2cncc(F)c2)[C@H](C(=O)NC2CC(F)(F)C2)c2ccccc2Cl)c1` [IVOSIDENIB], for which, in [1], the AC50 is over 30 µM.
As for `Nc1nnc(-c2cccc(Cl)c2Cl)c(N)n1` [LAMOTRIGINE], the AC50 in assay [3] was over 10 µM; in assay [4], over 10 µM; in assay [5] it was over 10 µM; in [1], 18 µM; at Histamine H2 receptor, over 10 µM.
`O=C1[C@@H]2[C@H]3CC[C@H](C3)[C@@H]2C(=O)N1C[C@@H]1CCCC[C@H]1CN1CCN(c2nsc3ccccc23)CC1` [LURASIDONE]: the AC50 at Androgen receptor is 5.7 µM; in assay [1], 0.0699 µM; on Thromboxane A2 receptor, over 30 µM.
On to `CCCCCCO[C@@H](C)c1cccc(-c2csc(NC(=O)c3cc(Cl)c(/C=C(\C)C(=O)O)c(Cl)c3)n2)c1OC` [LUSUTROMBOPAG], for which the half-maximal activity concentration (AC50) is 4.1 µM in assay [1] and over 30 µM in [2].
As to `CO[C@@H]1[C@@H](OC(N)=O)[C@@H](O)[C@H](Oc2ccc3c(O)c(NC(=O)c4ccc(O)c(CC=C(C)C)c4)c(=O)oc3c2C)OC1(C)C` [NOVOBIOCIN], the half-maximal activity concentration (AC50) on D(1A) dopamine receptor and on Thromboxane A2 receptor was over 30 µM throughout.
`CCCCCCCC/C=C\CCCCCCCC(=O)O` [OLEIC ACID] registered a concentration at half-maximal activity (AC50) in assay [1] of 4.7 µM.
Turning to `C#CCN(C)Cc1ccccc1` [PARGYLINE], the AC50 in assay [2] was over 30 µM.
`CC(=O)SCC(Cc1ccccc1)C(=O)NCC(=O)OCc1ccccc1` (centres undefined) [RACECADOTRIL]: the AC50 (in assay [3]; in assay [4]; in [5]; on Histamine H2 receptor) was over 10 µM in each case.
In the case of `COc1cc2c(cc1OC)C1CC(=O)C(CC(C)C)CN1CC2` (centres undefined) [TETRABENAZINE], the AC50 at D(1A) dopamine receptor is over 30 µM.
The compound `CC(C)(CO)c1cc2cc(NC(=O)C3(c4ccc5c(c4)OC(F)(F)O5)CC3)c(F)cc2n1C[C@@H](O)CO` [TEZACAFTOR] yielded an AC50 on Androgen receptor of over 30 µM.
Turning to `Cc1ccc(C(C)C)c(O)c1` [THYMOL], in [1], the AC50 stood at 25 µM.
Consider `Cc1c(C)c2c(c(C)c1O)CCC(C)(COc1ccc(CC3SC(=O)NC3=O)cc1)O2` (centres undefined) [TROGLITAZONE], for which the AC50 on Androgen receptor was over 30 µM.
Take `c1cnc2cc3c(cc2n1)[C@@H]1CNC[C@H]3C1` [VARENICLINE]: the AC50 on D(1A) dopamine receptor and on Thromboxane A2 receptor was over 30 µM in each case.
As to `Nc1c2c(nc3ccccc13)CCCC2O` (centres undefined) [VELNACRINE], the AC50 at D(1A) dopamine receptor and at Thromboxane A2 receptor was over 30 µM throughout.
